Measured values taken from ChEMBL document CHEMBL1201862, “PubChem BioAssay data set” (2004).
Values joined by “and” are separate entries in the source; they are usually repeats but may differ in a detail not shown here. Identical values can stand only once.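 All cell lines were grown in 96-well plates and treated with compound for 48 hours. GI50 is the concentration that inhibits growth by half.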 Active and inactive are the calls of the source. Rule as the data show it: active = GI50 up to about 1.1 µM and inactive = higher.

Tests used:
Assay in all cases: growth of human tumour cells (NCI), 48 h
786-0 = system: 786-0
CAKI-1 = system: CAKI-1
EKVX = system: EKVX
HCT-116 = system: HCT-116
HCT-15 = system: HCT-15
HT-29 = system: HT-29
MCF7 = system: MCF7
MOLT-4 = system: MOLT-4
NCI-H226 = system: NCI-H226
NCI-H23 = system: NCI-H23
OVCAR-3 = system: OVCAR-3
OVCAR-5 = system: OVCAR-5
SF-268 = system: SF-268
SK-MEL-2 = system: SK-MEL-2
SK-OV-3 = system: SK-OV-3
SN12C = system: SN12C
SNB-19 = system: SNB-19
SNB-75 = system: SNB-75
T47D = system: T47D
TK-10 = system: TK-10

SMILES	GI50 (786-0)	GI50 (CAKI-1)	GI50 (EKVX)	GI50 (HCT-116)	GI50 (HCT-15)	GI50 (HT-29)	GI50 (MCF7)	GI50 (MOLT-4)	GI50 (NCI-H226)	GI50 (NCI-H23)	GI50 (OVCAR-3)	GI50 (OVCAR-5)	GI50 (SF-268)	GI50 (SK-MEL-2)	GI50 (SK-OV-3)	GI50 (SN12C)	GI50 (SNB-19)	GI50 (SNB-75)	GI50 (T47D)	GI50 (TK-10)
O=C(O)CCCSc1nc2ccccc2s1	> 100 µM (inactive)	> 100 µM (inactive)	> 100 µM (inactive)	> 100 µM (inactive)	> 100 µM	> 100 µM (inactive)	> 100 µM (inactive)	> 100 µM (inactive)	> 100 µM (inactive)	> 100 µM (inactive)	> 100 µM (inactive)	> 100 µM (inactive)	> 100 µM (inactive)	> 100 µM (inactive)	> 100 µM (inactive)	> 100 µM (inactive)	> 100 µM (inactive)	> 100 µM (inactive)	> 100 µM (inactive)	> 100 µM (inactive)
CC(C)c1ccc2c(c1)/C(=C1/Nc3ccccc3/C1=N/O)C(=O)N2	4.85 µM (inactive)	4.29 µM (inactive)	4.51 µM (inactive)	3.76 µM (inactive)	3.98 µM	4.69 µM (inactive)	1.69 µM (inactive)	3.3 µM (inactive)	10.8 µM (inactive)	3.93 µM (inactive)	7.46 µM (inactive)	16.1 µM (inactive)	7 µM (inactive)	3.9 µM (inactive)	6.55 µM (inactive)	5.22 µM (inactive)	16.4 µM (inactive)	12.7 µM (inactive)	3.88 µM (inactive)	9.4 µM (inactive)
Clc1ccc(NCNC2Nc3ccccc3N2)cc1Cl	66.8 µM (inactive)	34.6 µM (inactive)	63.7 µM (inactive)	36.7 µM (inactive)	31.1 µM	13.7 µM (inactive)	0.247 µM (active)	39.2 µM (inactive)	27.5 µM (inactive)	> 100 µM (inactive)	29.3 µM (inactive)	> 100 µM (inactive)	28.4 µM (inactive)	32 µM (inactive)	48.8 µM (inactive)	22.6 µM (inactive)	> 100 µM (inactive)	19.8 µM (inactive)	12.6 µM (inactive)	55.6 µM (inactive)
Clc1ccc(CCN(CCc2ccc(Cl)c(Cl)c2)CCN2CCCC2)cc1Cl	1.76 µM (inactive)	1.64 µM (inactive)	2.05 µM (inactive)	1.69 µM (inactive)	1.79 µM	1.68 µM (inactive)	1.51 µM (inactive)	1.79 µM (inactive)	1.67 µM (inactive)	1.82 µM (inactive)	1.73 µM (inactive)	1.6 µM (inactive)	1.73 µM (inactive)	1.67 µM (inactive)	1.78 µM (inactive)	1.87 µM (inactive)	1.82 µM (inactive)	2.23 µM (inactive)	3.27 µM (inactive)	1.78 µM (inactive)
COc1ccccc1/C(=N\OCCC(=O)O)c1cccs1	> 100 µM (inactive)	> 100 µM (inactive)	> 100 µM (inactive)	> 100 µM (inactive)	> 100 µM	> 100 µM (inactive)	> 100 µM (inactive)	> 100 µM (inactive)	> 100 µM (inactive)	> 100 µM (inactive)	> 100 µM (inactive)	> 100 µM (inactive)	> 100 µM (inactive)	> 100 µM (inactive)	> 100 µM (inactive)	> 100 µM (inactive)	> 100 µM (inactive)	> 100 µM (inactive)	> 100 µM (inactive)	> 100 µM (inactive)
O=C1OC(CN2CCN(c3ccccc3)CC2)CN1C(=S)Nc1ccccc1 (stereo not given)	> 100 µM (inactive)	> 100 µM (inactive)	> 100 µM (inactive)	> 100 µM (inactive)	> 100 µM	35.1 µM (inactive)	> 100 µM (inactive)	> 100 µM (inactive)	> 100 µM (inactive)	> 100 µM (inactive)	> 100 µM (inactive)	> 100 µM (inactive)	> 100 µM (inactive)	31.8 µM (inactive)	> 100 µM (inactive)	> 100 µM (inactive)	> 100 µM (inactive)	65.6 µM (inactive)	> 100 µM (inactive)	> 100 µM (inactive)
CCOC(=O)CC[C@@H](NC(=O)c1ccc(NCc2ccc3nc(OC)c(OC)nc3c2)cc1)C(=O)OCC	59.4 µM (inactive)	> 83.9 µM (inactive)	> 78.3 µM (inactive)	> 100 µM (inactive)	> 87.3 µM	> 72.8 µM (inactive)	25.5 µM (inactive)	16.6 µM (inactive)	58.7 µM (inactive)	> 83.2 µM (inactive)	17.3 µM (inactive)	> 100 µM (inactive)	33.4 µM (inactive)	18.1 µM (inactive)	> 100 µM (inactive)	52 µM (inactive)	> 100 µM (inactive)	14.5 µM (inactive)	19.1 µM (inactive)	60.5 µM (inactive)
O=C(Nc1nnc(-c2ccc(Cl)cc2)o1)C(SC(=S)N1CCCCC1)c1ccccc1 (stereo not given)	14.8 µM (inactive)	13.6 µM (inactive)	20.7 µM (inactive)	12.7 µM (inactive)	7.16 µM	22.2 µM (inactive)	18.7 µM (inactive)	1.31 µM (inactive)	32.7 µM (inactive)	21.9 µM (inactive)	19.3 µM (inactive)	21.5 µM (inactive)	6.5 µM (inactive)	15.7 µM (inactive)	32.3 µM (inactive)	12.5 µM (inactive)	20.5 µM (inactive)	39.1 µM (inactive)	27.2 µM (inactive)	34 µM (inactive)
CCn1cc(C(=O)O)c(=O)c2cc3c(cc21)S(=O)(=O)CC3	> 100 µM (inactive)	> 100 µM (inactive)	> 100 µM (inactive)	> 100 µM (inactive)	> 100 µM	> 100 µM (inactive)	> 100 µM (inactive)	> 100 µM (inactive)	> 100 µM (inactive)	> 100 µM (inactive)	> 100 µM (inactive)	> 100 µM (inactive)	> 100 µM (inactive)	> 100 µM (inactive)	> 100 µM (inactive)	> 100 µM (inactive)	> 100 µM (inactive)	> 100 µM (inactive)	> 100 µM (inactive)	> 100 µM (inactive)
ON[C@@H]1C=C[C@H](n2cnc3c(NC4CC4)ncnc32)C1	> 100 µM (inactive)	> 100 µM (inactive)	> 100 µM (inactive)	86.5 µM (inactive)	> 100 µM	> 100 µM (inactive)	> 100 µM (inactive)	> 100 µM (inactive)	> 100 µM (inactive)	> 100 µM (inactive)	> 100 µM (inactive)	> 100 µM (inactive)	> 100 µM (inactive)	> 100 µM (inactive)	> 100 µM (inactive)	> 100 µM (inactive)	> 100 µM (inactive)	> 100 µM (inactive)	> 100 µM (inactive)	> 100 µM (inactive)
O=[N+]([O-])c1cccc2nc3ccccc3c(NCCC[N+]3([O-])CCOCC3)c12	0.116 µM (active)	2.65 µM (inactive)	0.177 µM (active)	0.0948 µM (active)	1.36 µM	0.0859 µM (active)	0.0548 µM (active)	0.0687 µM (active)	0.186 µM (active)	0.0791 µM (active)	0.17 µM (active)	0.327 µM (active)	0.164 µM (active)	0.175 µM (active)	0.281 µM (active)	0.171 µM (active)	0.28 µM (active)	0.195 µM (active)	0.171 µM (active)	0.697 µM (active)
CCCCCC(/C=C/C1CCC(=O)C1)OCOCCOC (stereo not given)	19.3 µM (inactive)	31.5 µM (inactive)	54.1 µM (inactive)	27 µM (inactive)	31.1 µM	23.4 µM (inactive)	33.5 µM (inactive)	15.8 µM (inactive)	29.1 µM (inactive)	55.2 µM (inactive)	41.4 µM (inactive)	> 100 µM (inactive)	29.3 µM (inactive)	64.6 µM (inactive)	> 100 µM (inactive)	57.5 µM (inactive)	> 53.3 µM (inactive)	11.5 µM (inactive)	52.1 µM (inactive)	37.2 µM (inactive)
COC(=O)[C@H](Cc1ccccc1)NC(=O)[C@H](Cc1ccccc1)NC(=O)CN1C(=O)[C@@H]2C3C=CC(C3)[C@@H]2C1=O	15.5 µM (inactive) and 14.2 µM (inactive)	16.7 µM (inactive) and 18.6 µM (inactive)	19.8 µM (inactive) and 18.7 µM (inactive)	16.6 µM (inactive) and 14.3 µM (inactive)	15.6 µM and 17.4 µM	19.2 µM (inactive) and 20 µM (inactive)	18.5 µM (inactive) and 17.8 µM (inactive)	3.32 µM (inactive) and 2.26 µM (inactive)	20.1 µM (inactive) and 19.1 µM (inactive)	17.6 µM (inactive) and 17.2 µM (inactive)	16.6 µM (inactive) and 18 µM (inactive)	22 µM (inactive) and 19.8 µM (inactive)	13.2 µM (inactive) and 17.7 µM (inactive)	18.2 µM (inactive) and 17.9 µM (inactive)	16.7 µM (inactive)	18.2 µM (inactive) and 16.7 µM (inactive)	21 µM (inactive) and 20.8 µM (inactive)	18.7 µM (inactive) and 18 µM (inactive)	21.9 µM (inactive) and 21.7 µM (inactive)	18.9 µM (inactive) and 17.5 µM (inactive)
CN(C)CCNc1ccc2ncnc3c2c1C(=O)c1ccccc1-3	0.215 µM (active)	0.259 µM (active)	0.343 µM (active)	0.0676 µM (active)	0.323 µM	0.463 µM (active)	0.406 µM (active)	0.0769 µM (active)	0.431 µM (active)	0.655 µM (active)	0.556 µM (active)	0.488 µM (active)	0.513 µM (active)	1.76 µM (inactive)	1.81 µM (inactive)	0.332 µM (active)	1.02 µM (active)	0.446 µM (active)	0.619 µM (active)	0.175 µM (active)
